Assay [1] in a line: Luminescence Cell-Based Dose Response to Identify Activators of 5'UTR Stem-Loop Driven Prion Protein mRNA Translation in H4-C Neuroglioblastoma Cells. [Related pubchem assays: 1829 (Project Summary), 1814 (Primary HTS)]. The class given is functional.
Assay [2] is described as follows: Luminescence Cell-Based Dose Confirmation HTS to Identify Activators of 5'UTR Stem-Loop Driven Alpha-Synuclein mRNA Translation in H4 Neuroglioblastoma Cells. [Related pubchem assays: 1829 (Project Summary), 1814 (Primary HTS)]. The class given is functional.
The nature of assay [3]: insulin promoter down-regulators in MIN6 cells, imaging, high-content screening, mouse beta cells (AID 1628). The class given is functional.
The nature of assay [4]: Luminescence Cell-Based Dose Response HTS to Identify Activators of Luciferase Translation or Activity in H4 […] Cells. [Related pubchem assays: 1829 (Project Summary), 1814 (Primary HTS)]. The format is functional.
For assay [5], the system named is BJ. Put plainly: cytotoxicity toward BJ-TERT fibroblasts, dose response, cell-based, RAS-independent, luminescence (AID 1933). The format is functional. The note with it: Homo sapiens.
A short description of assay [6]: cytotoxicity in MIN6 insulinoma cells, dose response, cytotoxicity control, cell-based, mouse insulinoma (AID 2122).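 Also: confirmatory high-throughput counterscreen run to flag cytotoxic compounds; mouse MIN-6 beta cells carrying an insulin promoter eGFP reporter.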 The class given is functional.
Assay [7] deals with BJ. Put plainly: cells. The class given is functional, cell-based. The note with it: Homo sapiens.
Assay [8] can be described thus: Luminescence Cell-Based Dose Response to Identify Activators of Luciferase Translation or Activity in H4-C Neuroglioblastoma Cells. [Related pubchem assays: 1829 (Project Summary), 1814 (Primary HTS)]. The class given is functional.
Assay [9] is described as follows: Luminescence-based dose response cell-based high throughput screening assay for cytotoxic compounds using the IEC-6 intestinal epithelial cell line. [Related pubchem assays: 1858 (Summary AID.), 1825 (Counterscreen.), 1907 (Confirmation screen.)]. The format is functional.
Assay [10] in a line: Luminescence Cell-Based Dose Confirmation to Identify Activators of 5'UTR Stem-Loop Driven Alpha-Synuclein mRNA Translation in H4 Neuroglioblastoma Cells. [Related pubchem assays: 1829 (Project Summary), 1814 (Primary HTS)]. The class given is functional.
For assay [11], the system named is BJ. Put plainly: cytotoxicity toward BJ-TERT-LT-ST fibroblasts, dose response, cell-based, RAS-independent, luminescence (AID 1935).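 Also: BJ fibroblasts immortalized with TERT plus LT and ST oncogenes.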 The note with it: Homo sapiens. The class given is functional.
The nature of assay [12]: cytotoxicity toward DRD oncogenic fibroblasts, dose response, cell-based, non-viral oncogenic, luminescence (AID 1934). The class given is functional. Particulars: Homo sapiens.
For assay [13], the system named is BJ. Put plainly: cytotoxicity toward Ras-transformed BJeLR fibroblasts, dose response, cell-based, alamar blue fluorescence, cherrypicked samples (AID 2631).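 Also: confirmatory dose-response assay in RAS-dependent BJ fibroblasts engineered with TERT, LT and ST, with cytotoxicity read by fluorescence.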 The class given is functional. The note with it: Homo sapiens.
The nature of assay [14]: Shn3 3'UTR reporter inhibitors, dose response, cell-based, Clone20 osteoblasts, firefly luciferase, cherry-picked (AID 624132).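 Also: firefly luciferase luminescence from reporter carrying the Shn3 3'UTR in osteoblasts.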 The format is functional.
A short description of assay [15]: control 3'UTR Renilla luciferase suppression, dose response, counter-screen for Shn3 inhibitor project, cell-based, Clone20-Shn3RL, cherry-picked (AID 624133). The class given is functional.
Assay [16] is described as follows: inhibitors of HIV Env-driven cell fusion, dose response, cherry-pick (AID 652057). The class given is functional, cell-based.
Assay [17] is described as follows: CEM21 lymphoblast cell cytotoxicity, dose response, cytotoxicity control for viral fusion inhibitor project, CellTiter-Glo luminescence, cherry-picked (AID 652042).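 Also: potency for signal decrease meaning cytotoxicity.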 The class given is functional, cell-based.
The nature of assay [18]: ZM109 Env clade C HIV-1 fusion inhibitors, dose response, HeLa effector, CEM target cells, luciferase, cherry-pick (AID 652058). The format is functional, cell-based.
The nature of assay [19]: off-target signal loss in HeLa-CEM21 co-culture – HeLa F-luc CTL cells, cherry-picked, counter-screen for HIV-1 Env fusion inhibitor project, dose response (AID 652040).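 Also: potency for signal decrease marking cytotoxic or nonspecific inhibition.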 The format is functional, cell-based.
Assay [20] in a line: inhibitors of clade B AD8 Env fusion, dose response, cell-based, cherry-pick (AID 652062).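 Also: luciferase signal from cell-cell fusion driven by HIV-1 clade B AD8 Env; potency is for inhibitors of fusion seen as a drop in luminescence.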 The format is functional.
Assay [21] has as its target COUP transcription factor 2 (Homo sapiens, UniProt P24468). Put plainly: Luminescence-based cell-based high throughput dose response assay to identify inhibitors of COUP-TFII (NR2F2). The format is functional.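 Also: HEK293 cells transiently cotransfected with COUP-TFII expression vector and reporter; luciferase reporter luminescence driven by COUP-TFII from the pX2-168 reporter plasmid.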
For assay [22], the target named is T1, Neuropeptide Y receptor type 1 (Homo sapiens, UniProt P25929).
T1 sequence (P25929 whole entry): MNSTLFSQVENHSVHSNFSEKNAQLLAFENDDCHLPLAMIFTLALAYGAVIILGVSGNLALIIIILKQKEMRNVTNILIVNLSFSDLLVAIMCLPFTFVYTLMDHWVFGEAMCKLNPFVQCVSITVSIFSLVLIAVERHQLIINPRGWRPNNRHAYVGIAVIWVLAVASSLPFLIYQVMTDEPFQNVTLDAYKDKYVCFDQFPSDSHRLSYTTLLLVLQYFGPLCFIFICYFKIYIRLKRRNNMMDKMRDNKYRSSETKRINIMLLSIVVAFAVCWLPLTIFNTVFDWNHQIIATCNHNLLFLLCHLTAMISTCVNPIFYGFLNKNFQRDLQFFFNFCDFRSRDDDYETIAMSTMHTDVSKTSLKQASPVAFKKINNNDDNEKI
Put plainly: Fluorescence-based counterscreen for potentiators or agonists of NPY-Y2: cell-based high-throughput dose response assay for potentiators or agonists of NPY-Y1. The format is functional.

Assay [23] deals with HEK293. Put plainly: Fluorescence-based counterscreen for potentiators or agonists of NPY-Y2: cell-based high-throughput dose response assay to identify inhibitors of cyclic nucleotide gated ion channel (CNGC) activity. In this assay, the parental HEK293 cell line transfected with a cyclic-nucleotide gated ion channel (CNGC)-based cAMP sensor is used to measure inhibition of isoproterenol-induced CNGC activity by test compound. The class given is functional. Particulars: Homo sapiens.

Assay [24] concerns Streptococcus sp. 'group A'. Put plainly: growth inhibition of control SK(-) GAS strain, dose response, counter-screen for streptokinase expression inhibitor project, luminescence, kanamycin, BacTiterGlo, confirmation (AID 1900). The format is functional, organism-based.
For assay [25], the target named is T2, Neuropeptide Y receptor type 2 (Homo sapiens, UniProt P49146).
T2 sequence (P49146 whole entry): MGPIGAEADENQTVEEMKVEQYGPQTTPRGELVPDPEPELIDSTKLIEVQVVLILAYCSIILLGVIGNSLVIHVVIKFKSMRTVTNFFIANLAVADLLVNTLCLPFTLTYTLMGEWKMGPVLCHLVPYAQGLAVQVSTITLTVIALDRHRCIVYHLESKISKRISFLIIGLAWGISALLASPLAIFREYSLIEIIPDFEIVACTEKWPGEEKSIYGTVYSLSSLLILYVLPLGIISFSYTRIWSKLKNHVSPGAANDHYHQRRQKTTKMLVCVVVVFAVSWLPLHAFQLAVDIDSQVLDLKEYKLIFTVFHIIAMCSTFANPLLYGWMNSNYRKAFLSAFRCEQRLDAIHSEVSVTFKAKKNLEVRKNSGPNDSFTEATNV
Put plainly: Fluorescence-based cell-based high-throughput dose response assay for agonists of NPY-Y2. [Related pubchem assays: 1703 (Screening assay (CNGC inhibitors).), 1359 (Screening assay (NPY-Y2 potentiators or agonists).), 1304 (Screening assay (NPY-Y1 potentiators or agonists).), 1710 (Screening assay (NPY-Y2 agonists).), 1791 (Summary AID.)]. The format is functional.

In assay [26] the target is T3, Streptokinase A (Streptococcus pyogenes serotype M1, UniProt P10520).
T3 sequence (P10520 whole entry): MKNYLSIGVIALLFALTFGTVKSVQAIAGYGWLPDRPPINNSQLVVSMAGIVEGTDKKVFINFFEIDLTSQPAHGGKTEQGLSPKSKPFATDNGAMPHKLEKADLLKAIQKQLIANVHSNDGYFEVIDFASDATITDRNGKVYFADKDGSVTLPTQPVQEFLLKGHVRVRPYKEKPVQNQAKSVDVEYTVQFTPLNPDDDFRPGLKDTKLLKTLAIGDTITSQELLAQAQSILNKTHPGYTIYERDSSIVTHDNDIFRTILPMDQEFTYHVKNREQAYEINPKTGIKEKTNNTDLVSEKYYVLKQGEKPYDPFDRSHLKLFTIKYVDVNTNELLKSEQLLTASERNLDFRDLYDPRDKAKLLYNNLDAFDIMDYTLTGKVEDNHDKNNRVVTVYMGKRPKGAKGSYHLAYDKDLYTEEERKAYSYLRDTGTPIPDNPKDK
Put plainly: S. pyogenes streptokinase expression inhibitors, potency, dose response, plasminogen activation absorbance, OD405 (AID 1914).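 Also: secreted streptokinase activity via plasminogen activation per viability signal from cell pellet.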 The format is functional, Streptococcus pyogenes M1 GAS.

The target in assay [27] is G-protein coupled receptor 55 (Homo sapiens, UniProt Q9Y2T6). Put plainly: GPR55 antagonists blocking LPI-driven arrestin recruitment, primary screen, imaging, U2OS, beta-arrestin-GFP, LPI agonist (AID 2013).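 Also: antagonist potency measured as reduced agonist-driven arrestin aggregation.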 The format is functional.
Sequence of G-protein coupled receptor 55 (Q9Y2T6 whole entry): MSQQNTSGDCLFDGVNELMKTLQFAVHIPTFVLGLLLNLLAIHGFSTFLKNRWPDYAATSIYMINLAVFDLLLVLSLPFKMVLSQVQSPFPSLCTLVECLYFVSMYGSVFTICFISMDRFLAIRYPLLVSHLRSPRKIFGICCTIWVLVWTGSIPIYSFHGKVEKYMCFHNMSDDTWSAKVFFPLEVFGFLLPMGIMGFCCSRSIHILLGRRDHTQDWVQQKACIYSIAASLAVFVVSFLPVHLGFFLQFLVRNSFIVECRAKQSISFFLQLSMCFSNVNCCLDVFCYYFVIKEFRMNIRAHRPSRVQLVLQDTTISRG
Assay [28] has as its target T2, Neuropeptide Y receptor type 2. Put plainly: Fluorescence-based cell-based high-throughput dose response assay for potentiators or agonists of NPY-Y2. [Related pubchem assays: 1539 (Screening assay (NPY-Y2 potentiators or agonists).), 1703 (Screening assay (CNGC inhibitors).), 1359 (Screening assay (NPY-Y2 potentiators or agonists).), 1304 (Screening assay (NPY-Y1 potentiators or agonists).) …. The class given is functional.

Assay [29] addresses T1, Neuropeptide Y receptor type 1. Put plainly: Fluorescence-based counterscreen for agonists of NPY-Y2: cell-based high-throughput dose response assay for agonists of NPY-Y1. The class given is functional.
The subject of assay [30] is Streptococcus. Put plainly: Group A Streptococcus viability loss, dose response, counter-screen for streptokinase expression inhibitor project, luminescence, BacTiterGlo (AID 1915).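 Also: potency for reduction of bacterial viability or growth.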 The format is functional, organism-based.
A short description of assay [31]: HeLa cell cytotoxicity, dose response, cytotoxicity control for MgcRacGAP inhibitor project (AID 624300). The class given is functional.
The target of assay [32] is T4, Rac GTPase-activating protein 1 (Homo sapiens, UniProt Q9H0H5).
T4 sequence (Q9H0H5 whole entry): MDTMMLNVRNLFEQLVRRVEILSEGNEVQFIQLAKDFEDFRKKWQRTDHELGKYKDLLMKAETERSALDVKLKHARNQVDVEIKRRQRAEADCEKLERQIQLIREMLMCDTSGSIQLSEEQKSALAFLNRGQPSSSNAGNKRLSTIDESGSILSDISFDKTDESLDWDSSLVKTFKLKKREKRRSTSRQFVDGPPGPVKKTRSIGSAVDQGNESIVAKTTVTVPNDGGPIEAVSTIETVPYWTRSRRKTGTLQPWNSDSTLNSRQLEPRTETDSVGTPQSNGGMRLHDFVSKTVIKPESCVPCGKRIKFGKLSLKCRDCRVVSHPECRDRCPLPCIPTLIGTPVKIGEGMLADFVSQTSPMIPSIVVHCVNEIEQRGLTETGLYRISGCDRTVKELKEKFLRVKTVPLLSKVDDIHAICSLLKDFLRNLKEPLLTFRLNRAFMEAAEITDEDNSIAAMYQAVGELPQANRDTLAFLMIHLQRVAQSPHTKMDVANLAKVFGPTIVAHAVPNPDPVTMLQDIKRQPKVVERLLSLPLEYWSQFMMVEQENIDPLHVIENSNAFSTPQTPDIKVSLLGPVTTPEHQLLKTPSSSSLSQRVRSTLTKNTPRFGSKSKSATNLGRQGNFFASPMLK
Put plainly: MgcRacGAP GTPase-activating activity inhibitors, confirmation, biochemical, ADP Hunter fluorescence, primary and confirmatory (AID 624330). The format is functional.

Active and inactive are the calls of the source.

Sequence of COUP transcription factor 2 (P24468 whole entry): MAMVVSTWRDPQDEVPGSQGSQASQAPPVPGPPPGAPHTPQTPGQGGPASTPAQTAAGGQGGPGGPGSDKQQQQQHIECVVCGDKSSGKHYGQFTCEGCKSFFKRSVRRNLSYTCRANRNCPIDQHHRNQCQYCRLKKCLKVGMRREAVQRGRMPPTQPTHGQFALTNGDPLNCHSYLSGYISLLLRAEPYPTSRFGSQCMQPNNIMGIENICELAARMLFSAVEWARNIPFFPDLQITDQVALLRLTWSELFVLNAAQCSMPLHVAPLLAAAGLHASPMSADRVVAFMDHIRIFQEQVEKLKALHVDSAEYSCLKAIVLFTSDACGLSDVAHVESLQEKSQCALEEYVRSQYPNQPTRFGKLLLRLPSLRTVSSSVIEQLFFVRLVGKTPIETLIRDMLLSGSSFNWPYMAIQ

For `O=C1N(c2ccccc2)C[C@@H]2C[C@@H](c3cc4ccccc4o3)N3CCC[C@@]123`, the EC50 in assay [1] was 239 nM (inconclusive); in assay [2], > 120000 nM (not active); in assay [4] it was > 120000 nM (not active); in assay [5], 1370 nM (active); in assay [7], 2350 nM (active); in assay [8], 266 nM (inconclusive). For the same compound, the EC50 in assay [10] is 1600 nM (active); in [11] it was 318 nM (inconclusive); in assay [12], 480 nM (active); in [13] it was 205 nM (active). Moreover, the IC50 in assay [3] is 441 nM (active); in [6], 535 nM (active); in assay [9] it was 189 nM (active); in [21], 737 nM (active). Further, the AC50 in assay [14] was 536 nM (active); in assay [15], 29900 nM (active); in assay [16] it was 1010 nM (active); in assay [17] it was 534 nM (active); in assay [18] it was 1300 nM (active); in assay [19], 1260 nM (active). Besides, in [20], the AC50 was 1270 nM (active).
`CCOC(=O)c1nc(Nc2ccc(Nc3ccccc3)cc2)c2ccccc2n1`: the EC50 was 13200 nM (not active) in [22]; > 11800 nM (not active) in [23]; 10200 nM (active) in assay [24]; 10100 nM (not active) in assay [25]; > 150000 nM (not active) in [26]; 13200 nM (not active) in [28]. Besides, the EC50 in [29] was 10900 nM (not active); in assay [30], 12800 nM (active). Also, the IC50 in assay [27] was 2480 nM (active); in assay [32] it was 105000 nM (active). Moreover, the CC50 in assay [31] is 44800 nM (active).

The values are drawn from ChEMBL document CHEMBL1201862, “PubChem BioAssay data set” (2004).
